Laboratory results taken from ChEMBL document CHEMBL3407485, “Design, synthesis and pharmacological evaluation of novel N-(2-(1, 1-dimethyl-5, 7-dioxo-4, 6-diazaspiro[2.4]heptan-6-yl)ethyl) sulfonamide derivatives as potential anticonvulsant agents” (Eur J Med Chem, 2015).
The source made the active and inactive calls. The calls are words filed in the database; no cut-off is given here.

Tests used:
Mus musculus [1] = experiment: Anticonvulsant activity in Kunming mouse assessed as protection against subcutaneous pentylenetetrazole-induced seizures at 300 mg/kg, ip after 4 hrs; type: functional, organism-based; set-up: dose 300 mg/kg
Mus musculus [2] = experiment: Anticonvulsant activity in Kunming mouse assessed as protection against maximal electroshock-induced seizures measured as abolition of hind limb tonic extension spasm at 300 mg/kg, ip after 4 hrs; type: functional, organism-based; set-up: dose 300 mg/kg; conditions: Hindlimb
Mus musculus [3] = experiment: Anticonvulsant activity in Kunming mouse assessed as protection against maximal electroshock-induced seizures measured as abolition of hind limb tonic extension spasm at 300 mg/kg, ip after 0.5 hrs; type: functional, organism-based; set-up: dose 300 mg/kg; conditions: Hindlimb
Mus musculus [4] = experiment: Anticonvulsant activity in Kunming mouse assessed as protection against subcutaneous pentylenetetrazole-induced seizures at 300 mg/kg, ip after 0.5 hrs; type: functional, organism-based; set-up: dose 300 mg/kg
Mus musculus [5] = experiment: Neurotoxicity in Kunming mouse assessed as motor impairment at 300 mg/kg, ip after 4 hrs by standardized rotarod test; type: toxicity, organism-based; set-up: dose 300 mg/kg, route intraperitoneal; conditions: in vivo
Mus musculus [6] = experiment: Neurotoxicity in Kunming mouse assessed as motor impairment at 300 mg/kg, ip after 0.5 hrs by standardized rotarod test; type: toxicity, organism-based; set-up: dose 300 mg/kg, route intraperitoneal; conditions: in vivo
Mus musculus [7] = experiment: Anticonvulsant activity in Kunming mouse assessed as protection against maximal electroshock-induced seizures measured as abolition of hind limb tonic extension spasm at 100 mg/kg, ip after 4 hrs; type: functional, organism-based; set-up: dose 100 mg/kg; conditions: Hindlimb
Mus musculus [8] = experiment: Anticonvulsant activity in Kunming mouse assessed as protection against maximal electroshock-induced seizures measured as abolition of hind limb tonic extension spasm at 100 mg/kg, ip after 0.5 hrs; type: functional, organism-based; set-up: dose 100 mg/kg; conditions: Hindlimb
Mus musculus [9] = experiment: Neurotoxicity in Kunming mouse assessed as motor impairment at 100 mg/kg, ip after 0.5 hrs by standardized rotarod test; type: toxicity, organism-based; set-up: dose 100 mg/kg, route intraperitoneal; conditions: in vivo
Mus musculus [10] = experiment: Anticonvulsant activity in Kunming mouse assessed as protection against maximal electroshock-induced seizures measured as abolition of hind limb tonic extension spasm at 30 mg/kg, ip after 0.5 hrs; type: functional, organism-based; set-up: dose 30 mg/kg; conditions: Hindlimb
Mus musculus [11] = experiment: Anticonvulsant activity in ip dosed Kunming mouse assessed as protection against maximal electroshock-induced seizures measured as abolition of hind limb tonic extension spasm after 0.5 hrs; type: functional; conditions: Hindlimb
[12] = Neurotoxicity in ip dosed Kunming mouse assessed as motor impairment after 4 hrs by standardized rotarod test; type: toxicity, organism-based; conditions: in vivo
Mus musculus [13] = experiment: Protective index, ratio of TD50 for neurotoxicity in ip dosed Kunming mouse to ED50 for protection against maximal electroshock-induced seizure in ip dosed Kunming mouse; type: functional
Mus musculus [14] = experiment: Anticonvulsant activity in Kunming mouse assessed as protection against maximal electroshock-induced seizures measured as abolition of hind limb tonic extension spasm at 30 mg/kg, ip after 4 hrs; type: functional, organism-based; set-up: dose 30 mg/kg; conditions: Hindlimb
Mus musculus [15] = experiment: Anticonvulsant activity in Kunming mouse assessed as protection against subcutaneous pentylenetetrazole-induced seizures at 100 mg/kg, ip after 0.5 hrs; type: functional, organism-based; set-up: dose 100 mg/kg
Mus musculus [16] = experiment: Neurotoxicity in Kunming mouse assessed as motor impairment at 100 mg/kg, ip after 4 hrs by standardized rotarod test; type: toxicity, organism-based; set-up: dose 100 mg/kg, route intraperitoneal; conditions: in vivo

| Structure (SMILES) | Activity (Mus musculus [1]) | Activity (Mus musculus [2]) | Activity (Mus musculus [3]) | Activity (Mus musculus [4]) | Activity (Mus musculus [5]) | Activity (Mus musculus [6]) | Activity (Mus musculus [7]) | Activity (Mus musculus [8]) | Activity (Mus musculus [9]) | Activity (Mus musculus [10]) | ED50 (Mus musculus [11]) [mg/kg] | TD50 at 4 h [12] [mg/kg] | Ratio TD50/ED50 (Mus musculus [13]) | Activity (Mus musculus [14]) | Activity (Mus musculus [15]) | Activity (Mus musculus [16]) |
| --- | --- | --- | --- | --- | --- | --- | --- | --- | --- | --- | --- | --- | --- | --- | --- | --- |
| CC1(C)CC12NC(=O)N(CCNS(C)(=O)=O)C2=O (racemic) | inactive | inactive | inactive | inactive | Non-toxic | Non-toxic | – | – | – | – | – | – | – | – | – | – |
| CCCCS(=O)(=O)NCCN1C(=O)NC2(CC2(C)C)C1=O (racemic) | inactive | – | – | inactive | Non-toxic | Non-toxic | Active | Active | – | – | – | – | – | – | – | – |
| CN(C)S(=O)(=O)NCCN1C(=O)NC2(CC2(C)C)C1=O (racemic) | inactive | Active | inactive | inactive | Non-toxic | Non-toxic | – | – | – | – | – | – | – | – | – | – |
| CC1(C)CC12NC(=O)N(CCNS(=O)(=O)c1cccs1)C2=O (racemic) | inactive | Active | – | inactive | Toxic | – | – | Active | Toxic | – | – | – | – | – | – | – |
| Cc1ccc(S(=O)(=O)NCCN2C(=O)NC3(CC3(C)C)C2=O)cc1 (racemic) | inactive | – | – | Active | Non-toxic | Toxic | Active | – | – | Active | 40.6 | 488 | 12 | – | – | – |
| CC1(C)CC12NC(=O)N(CCNS(=O)(=O)c1ccc(F)cc1)C2=O (racemic) | inactive | – | – | Active | Non-toxic | Non-toxic | – | – | – | Active | 28.1 | 561 | 20 | Active | – | – |
| CC1(C)CC12NC(=O)N(CCNS(=O)(=O)c1ccc([N+](=O)[O-])cc1)C2=O (racemic) | inactive | inactive | Active | inactive | Non-toxic | Non-toxic | – | – | – | – | – | – | – | – | – | – |
| CC1(C)CC12NC(=O)N(CCNS(=O)(=O)c1cccc([N+](=O)[O-])c1)C2=O (racemic) | inactive | inactive | – | inactive | Non-toxic | Toxic | – | Active | – | – | – | – | – | – | – | – |
| CC(C)c1cc(C(C)C)c(S(=O)(=O)NCCN2C(=O)NC3(CC3(C)C)C2=O)c(C(C)C)c1 (racemic) | inactive | Active | – | inactive | Non-toxic | Non-toxic | – | Active | – | – | – | – | – | – | – | – |
| CCOC(=O)C1(NC(=O)NCCNS(C)(=O)=O)CC1(C)C (racemic) | inactive | inactive | inactive | inactive | Non-toxic | Non-toxic | – | – | – | – | – | – | – | – | – | – |
| CCCCS(=O)(=O)NCCNC(=O)NC1(C(=O)OCC)CC1(C)C (racemic) | inactive | inactive | – | inactive | Non-toxic | Non-toxic | – | Active | – | – | – | – | – | – | – | – |
| CCOC(=O)C1(NC(=O)NCCNS(=O)(=O)N(C)C)CC1(C)C (racemic) | inactive | inactive | inactive | inactive | Non-toxic | Non-toxic | – | – | – | – | – | – | – | – | – | – |
| CCOC(=O)C1(NC(=O)NCCNS(=O)(=O)c2cccs2)CC1(C)C (racemic) | inactive | inactive | Active | inactive | Non-toxic | Toxic | – | – | – | – | – | – | – | – | – | – |
| CCOC(=O)C1(NC(=O)NCCNS(=O)(=O)c2ccc(C)cc2)CC1(C)C (racemic) | inactive | Active | – | inactive | Non-toxic | Non-toxic | – | Active | – | – | – | – | – | – | – | – |
| CCOC(=O)C1(NC(=O)NCCNS(=O)(=O)c2ccc(F)cc2)CC1(C)C (racemic) | inactive | – | – | inactive | Non-toxic | Non-toxic | Active | Active | – | – | – | – | – | – | – | – |
| CCOC(=O)C1(NC(=O)NCCNS(=O)(=O)c2ccc([N+](=O)[O-])cc2)CC1(C)C (racemic) | inactive | inactive | inactive | inactive | Non-toxic | Non-toxic | – | – | – | – | – | – | – | – | – | – |
| CCOC(=O)C1(NC(=O)NCCNS(=O)(=O)c2cccc([N+](=O)[O-])c2)CC1(C)C (racemic) | inactive | inactive | inactive | inactive | Non-toxic | Non-toxic | – | – | – | – | – | – | – | – | – | – |
| CCOC(=O)C1(NC(=O)NCCNS(=O)(=O)c2c(C(C)C)cc(C(C)C)cc2C(C)C)CC1(C)C (racemic) | inactive | inactive | Active | inactive | Non-toxic | Non-toxic | – | – | – | – | – | – | – | – | – | – |
| CCC1(C)CC(=O)NC1=O (configuration not stated) [ETHOSUXIMIDE] | Active | inactive | inactive | – | Non-toxic | Non-toxic | – | – | – | – | – | – | – | – | Active | – |
| O=C1NC(=O)C(c2ccccc2)(c2ccccc2)N1 [PHENYTOIN] | inactive | – | – | inactive | – | – | – | – | Toxic | Active | 9.2 | – | – | Active | – | Toxic |
